Measurements published in ChEMBL document CHEMBL1140970, “Synthesis and in vitro anti-Helicobacter pylori activity of N-[5-(5-nitro-2-heteroaryl)-1,3,4-thiadiazol-2-yl]thiomorpholines and related compounds” (2008).

Experiments:
Format in all cases: functional
Conditions in all cases: read-out: IZ
[1] = test system: Helicobacter pylori; assay: Antibacterial activity against metronidazole-sensitive Helicobacter pylori at 8 ug/disk after 3 to 5 days by filter paper disk diffusion method
[2] = test system: Helicobacter pylori; assay: Antibacterial activity against metronidazole-sensitive Helicobacter pylori at 16 ug/disk after 3 to 5 days by filter paper disk diffusion method
[3] = test system: Helicobacter pylori; assay: Antibacterial activity against metronidazole-sensitive Helicobacter pylori at 32 ug/disk after 3 to 5 days by filter paper disk diffusion method
[4] = test system: Helicobacter pylori; assay: Antibacterial activity against metronidazole-resistant Helicobacter pylori at 8 ug/disk after 3 to 5 days by filter paper disk diffusion method
[5] = test system: Helicobacter pylori; assay: Antibacterial activity against metronidazole-resistant Helicobacter pylori at 16 ug/disk after 3 to 5 days by filter paper disk diffusion method
[6] = test system: Helicobacter pylori; assay: Antibacterial activity against metronidazole-resistant Helicobacter pylori at 32 ug/disk after 3 to 5 days by filter paper disk diffusion method
[7] = test system: Helicobacter pylori; assay: Antibacterial activity against Helicobacter pylori clinical isolates at 0.5 ug/disk after 3 to 5 days by filter paper disk diffusion method
[8] = test system: Helicobacter pylori; assay: Antibacterial activity against Helicobacter pylori clinical isolates at 1 ug/disk after 3 to 5 days by filter paper disk diffusion method
[9] = test system: Helicobacter pylori; assay: Antibacterial activity against Helicobacter pylori clinical isolates at 2 ug/disk after 3 to 5 days by filter paper disk diffusion method
[10] = test system: Helicobacter pylori; assay: Antibacterial activity against Helicobacter pylori clinical isolates at 4 ug/disk after 3 to 5 days by filter paper disk diffusion method
[11] = test system: Helicobacter pylori; assay: Antibacterial activity against Helicobacter pylori clinical isolates at 8 ug/disk after 3 to 5 days by filter paper disk diffusion method
[12] = test system: Helicobacter pylori; assay: Antibacterial activity against Helicobacter pylori clinical isolates at 16 ug/disk after 3 to 5 days by filter paper disk diffusion method
[13] = test system: Helicobacter pylori; assay: Antibacterial activity against Helicobacter pylori clinical isolates at 32 ug/disk after 3 to 5 days by filter paper disk diffusion method

| Structure (SMILES) | zone of inhibition at 8 µg/disc [1] [mm] | zone of inhibition at 16 µg/disc [2] [mm] | zone of inhibition at 32 µg/disc [3] [mm] | zone of inhibition at 8 µg/disc [4] [mm] | zone of inhibition at 16 µg/disc [5] [mm] | zone of inhibition at 32 µg/disc [6] [mm] | zone of inhibition at 0.5 µg/disc [7] [mm] | zone of inhibition at 1 µg/disc [8] [mm] | zone of inhibition at 2 µg/disc [9] [mm] | zone of inhibition at 4 µg/disc [10] [mm] | zone of inhibition at 8 µg/disc [11] [mm] | zone of inhibition at 16 µg/disc [12] [mm] | zone of inhibition at 32 µg/disc [13] [mm] |
| --- | --- | --- | --- | --- | --- | --- | --- | --- | --- | --- | --- | --- | --- |
| O=[N+]([O-])c1ccc(-c2nnc(N3CCCCC3)s2)s1 | 6 | 6 | 6 | 6 | 6 | 6 | – | – | – | – | – | – | – |
| O=[N+]([O-])c1ccc(-c2nnc(N3CCOCC3)s2)s1 | 6 | 6 | 15 | 6 | 6 | 6 | – | – | – | – | – | – | – |
| O=[N+]([O-])c1ccc(-c2nnc(N3CCOCC3)s2)o1 | 33 | 36 | 42 | 30 | 33 | 48 | 10.8 | 17.5 | 23.7 | 28.4 | 32.1 | 36.6 | 40 |
| O=[N+]([O-])c1ccc(-c2nnc(N3CCCCC3)s2)o1 | 28 | 32 | 35 | 27 | 32 | 34 | 13.7 | 19 | 24.9 | 27.4 | 30.5 | 33.5 | 36.5 |
| Cn1c([N+](=O)[O-])cnc1-c1nnc(N2CCOCC2)s1 | 25 | 31 | 32 | 26 | 31 | 33 | 13.7 | 19.4 | 21.3 | 22.5 | 27.6 | 30.6 | 33.5 |
| Cn1c([N+](=O)[O-])cnc1-c1nnc(N2CC[S+]([O-])CC2)s1 | 6 | 19 | 25 | 6 | 15 | 21 | – | – | – | – | – | – | – |
| O=[N+]([O-])c1ccc(-c2nnc(N3CCS(=O)(=O)CC3)s2)s1 | 6 | 6 | 16 | 6 | 6 | 6 | – | – | – | – | – | – | – |
| Cn1c([N+](=O)[O-])cnc1-c1nnc(N2CCSCC2)s1 | 27 | 31 | 34 | 24 | 27 | 30 | 9.9 | 15.6 | 20 | 23.7 | 27.4 | 30.4 | 32.4 |
| O=[N+]([O-])c1ccc(-c2nnc(N3CCSCC3)s2)o1 | 32 | 35 | 41 | 26 | 37 | 42 | 10.8 | 18.3 | 23.4 | 27.7 | 30.1 | 32.9 | 36.9 |
| O=[N+]([O-])c1ccc(-c2nnc(N3CCSCC3)s2)s1 | 16 | 18 | 22 | 16 | 19 | 21 | – | – | – | – | – | – | – |
| O=[N+]([O-])c1ccc(-c2nnc(N3CC[S+]([O-])CC3)s2)s1 | 34 | 39 | 46 | 32 | 35 | 41 | 13.7 | 18.5 | 23.6 | 28.1 | 34.4 | 39.9 | 45 |
| O=[N+]([O-])c1ccc(-c2nnc(N3CCS(=O)(=O)CC3)s2)o1 | 43 | 50 | > 50 | 41 | 43 | 46 | 16.6 | 21 | 25.5 | 30.7 | 36.1 | 40.7 | 44.3 |
| O=[N+]([O-])c1ccc(-c2nnc(N3CC[S+]([O-])CC3)s2)o1 | 35 | 41 | 46 | 35 | 40 | 43 | 7.3 | 13.4 | 19.9 | 25.4 | 31 | 37.1 | 41.9 |
| Cn1c([N+](=O)[O-])cnc1-c1nnc(N2CCCCC2)s1 | 6 | 6 | 6 | 6 | 6 | 6 | – | – | – | – | – | – | – |
| Cn1c([N+](=O)[O-])cnc1-c1nnc(N2CCS(=O)(=O)CC2)s1 | 32 | 40 | 45 | 27 | 36 | 40 | 10.6 | 14.9 | 19.3 | 25.9 | 30.2 | 33.9 | 37.3 |
| CC1(C)S[C@@H]2[C@H](NC(=O)[C@H](N)c3ccc(O)cc3)C(=O)N2[C@H]1C(=O)O [AMOXICILLIN] | – | – | – | – | – | – | – | 24.5 | – | – | – | – | – |
| Cc1ncc([N+](=O)[O-])n1CCO [METRONIDAZOLE] | 18 | – | – | 11 | – | – | – | – | – | – | 16.3 | – | – |
